From US7547759B2, “Induction of tumor immunity by variants of folate binding protein” (Board of Regents, The University of Texas System, priority 2001, dated 2009)
Entries after “also recorded” stand apart in the source; their conditions may differ.

Legend:
[1] = tested on: peripheral blood mononuclear cells (PBMC); assay: CTL activity in PBMC with multiple peptide stimulations; type: cell-based, human; details: for CTL activity: recognition of E39: healthy donor PBMC stimulated three times with the peptide, then restimulated with E39
From the text: FIG. 2B illustrates CTL activity in PBMC with multiple stimulations with J65 or E39.
CTL activity can be assessed by methods described herein or as would be known to one of skill in the art. For example, CTLs may be assessed in freshly isolated peripheral blood mononuclear cells (PBMC), in a phytohaemaglutinin-stimulated IL-2 expanded cell line established from PBMC (Bernard et at., 1998) or by T cells isolated from a previously immunized subject and restimulated for 6 days with DC infected with an adenovirus vector containing antigen using standard 4 h 51^Cr release microtoxicity assays. In another fluorometric assay developed for detecting cell-mediated cytotoxicity, the fluorophore used is the non-toxic molecule ALAMARBLUE (dye) (Nociari et at., 1998). The ALAMARBLUE (dye) is fluorescently quenched (i.e., low quantum yield) until mitochondrial reduction occurs, which then results in a dramatic increase in the alamarBlue fluorescence intensity (i.e., increase in the quantum yield).
(§1) To address the effects of FBP variants on induction of CTL activity, PBMC cultures from the healthy donor stimulated three times with J65 were split in three and restimulated with either E39 or J65 or J77. A control culture was made of the same PBMC stimulated three times with E39 and restimulated with E39 for the fourth time. […] It was recently reported that memory CTL reacting with the tumor Ag such as FBP are present in the blood of healthy individuals (Lee et al., 2000). These cells can be easily activated by stimulation with the corresponding peptide presented on dendritic cells (Kim et al., 1999). To evaluate the stimulating ability of the analogs J65 and J77, PBMC from a responding donor were stimulated with E39, J65 and J77.

[2] = tested on: peripheral blood mononuclear cells (PBMC); assay: Expansion of PBMC stimulated with FBP peptide E39 and its variants (live cell counts); type: cell-based, human
From the text: FIG. 4 illustrates expansion of PBMCs stimulated with FBP peptide E39 and its variants.
(§2) To identify which of E39 variants induced higher cell expansion, PBMC from the same donor were stimulated three times with the corresponding peptide, and the resulting live cells were counted a week after each stimulation. […] Similar results were obtained with J65 in another donor (FIG. 5).

HLA-A2 = HLA-A2 stabilization by FBP epitope E39 variants; type: binding, human; details: FIG. 1; compared with wild-type E39
From the text: (§3) The HLA-A2 stabilizing ability of the variant peptides has also been determined (FIG. 1). […] In contrast, substitutions at position 1 increase the binding affinity of the peptide. The results in FIG. 2 show the cytolytic activity of J65-induced CTL compared with E39-induced CTL.

[3] = tested on: peripheral blood mononuclear cells (PBMC); assay: Specific IL-2 induction in PBMC by priming with E39 variants; type: cell-based, human; details: PBMC of responding donor; compared with wild-type peptide E39; FIG. 3
From the text: FIG. 3 illustrates specific interleukin 2 (IL-2) induction in PBMCs by priming with E39 variants.
as §2

[4] = tested on: peripheral blood mononuclear cells (PBMC); assay: IFN-γ induction in PBMC with multiple peptide stimulations; type: cell-based, human
From the text: FIG. 2A illustrates IFN-γ induction in peripheral blood mononuclear cells (PBMC) with multiple stimulations with J65 or E39.
as §3, §1

HLA-A2 (human) = assay: HLA-A2 stabilization assay (FIG. 1)
[5] = same donor, stimulated three times with peptide, live cells counted a week after each stimulation, FIG. 4

Molecule | CTL activity: recognition of E39 [1] | cell expansion of PBMC cultures ([2]; another donor, FIG. 5) | cell expansion of PBMC cultures [2, 5] | HLA-A2 stabilizing ability (HLA-A2) | IL-2 induction [3] | IFN-γ induction ([4]; 3×J65 stimulated PBMC cultures restimulated with the peptide, FIG. 2) | IFN-γ secretion elicited by wild-type epitope E39 in peptide-primed CTL ([4]; CTL primed with the peptide, then stimulated with E39) | CTL activity ([1]; healthy donor PBMC stimulated three times with J65 (3×J65), restimulated with the peptide) | HLA-A2 stabilizing ability relative to E39 (HLA-A2 (human))
EIWTFSTKV [J65, E39 variant H5→F, Y7→T] | significantly higher recognition of E39; also recorded: higher CTL activity | expanded faster | increased faster in numbers | almost half of the stabilizing ability of E39 | lower levels of IL-2 | weaker inducer of IFN-γ | higher | – | –
EIWTFSYKV [J78, E39 variant H5→F] | – | expanded, but at a slower rate | proliferated slower than control cultures | – | – | – | – | – | –
EIWTHSTKV [J77, E39 variant Y7→T] | – | expanded, but at a slower rate | proliferated slower than control cultures | – | lower levels of IL-2 | – | – | significantly lower CTL activity | –
EIWTHSYKV [E39, reference compound] | moderate weak recognition of E39 | died after the third stimulation | initially expanded faster than other cultures | – | – | – | – | – | –
EIWTFSTKV [J65 (variant of FBP epitope E39, H5→F, Y7→T)] | – | – | – | – | – | – | – | – | 0.5 fold of E39
